Source: article PMC4893628, “Chalcone-based Selective Inhibitors of a C4 Plant Key Enzyme as Novel Potential Herbicides” (Scientific Reports, 2016)
Like-named read-outs stand apart in the source and are kept apart here.

Key:
[1] = system: Pseudomonas putida KT2440; assay: Bacterial growth in microscale cultivation, P. putida; type: cell-based; settings: for activity at 0.3 µM / activity at 3 µM / activity at 30 µM: Pseudomonas putida; for Lag Phase: relative to control
Summary of the method: (§1)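 Inhibitors in DMSO were added to the medium, at a maximum of 400 μM for trans-chalcone and 100 μM for 2'-hydroxychalcone. Cultures were seeded at OD600 0.5, or 0.25 for B. subtilis, and growth was followed as 620 nm backscatter in a BioLector at 1200 rpm. Final backscatter, growth rate and lag phase were compared with DMSO controls.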

F. trinervia PEPC = target: T1, F. trinervia PEPC (Flaveria trinervia, UniProt P30694); assay: biochemical; type: biochemical; settings: for Selectivity C4/C3: C4 PEPC over C3 isoform
T1 construct: the full-length ppcA gene of PEPC from F. trinervia (EMBL-Bank X61304); made in house; host or cells: Escherichia coli BL21(DE3)
T1 sequence (P30694 1-966): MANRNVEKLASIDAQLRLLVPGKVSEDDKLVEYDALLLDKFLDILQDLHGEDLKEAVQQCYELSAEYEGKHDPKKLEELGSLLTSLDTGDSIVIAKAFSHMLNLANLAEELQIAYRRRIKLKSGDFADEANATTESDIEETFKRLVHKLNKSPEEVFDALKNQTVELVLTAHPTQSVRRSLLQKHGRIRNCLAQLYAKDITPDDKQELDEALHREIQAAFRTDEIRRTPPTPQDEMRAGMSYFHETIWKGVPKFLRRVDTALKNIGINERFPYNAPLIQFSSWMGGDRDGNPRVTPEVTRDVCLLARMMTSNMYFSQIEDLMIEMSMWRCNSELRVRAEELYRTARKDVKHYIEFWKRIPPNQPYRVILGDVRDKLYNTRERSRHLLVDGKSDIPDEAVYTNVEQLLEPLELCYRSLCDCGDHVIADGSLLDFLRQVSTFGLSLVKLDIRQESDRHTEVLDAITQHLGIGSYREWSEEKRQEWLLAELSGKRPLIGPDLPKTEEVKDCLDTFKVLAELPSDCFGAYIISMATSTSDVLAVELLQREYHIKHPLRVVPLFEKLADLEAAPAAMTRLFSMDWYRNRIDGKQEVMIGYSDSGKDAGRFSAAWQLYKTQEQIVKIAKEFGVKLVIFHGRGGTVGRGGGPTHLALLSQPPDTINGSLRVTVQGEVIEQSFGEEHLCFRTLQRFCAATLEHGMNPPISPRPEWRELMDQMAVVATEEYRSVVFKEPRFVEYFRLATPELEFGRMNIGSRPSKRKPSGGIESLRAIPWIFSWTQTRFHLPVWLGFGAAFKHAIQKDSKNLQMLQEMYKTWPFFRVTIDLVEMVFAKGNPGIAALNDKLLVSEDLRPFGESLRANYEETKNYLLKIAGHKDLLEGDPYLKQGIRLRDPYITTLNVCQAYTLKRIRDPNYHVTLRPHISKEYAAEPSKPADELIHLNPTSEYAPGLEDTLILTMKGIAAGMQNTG

[2] = system: Escherichia coli K-12 MG1655; assay: Bacterial growth in microscale cultivation, E. coli; type: cell-based; settings: for activity at 0.3 µM / activity at 3 µM / activity at 30 µM: Escherichia coli; for Lag Phase: relative to control
Summary of the method: as §1

Bacillus subtilis 168 = assay: Bacterial growth in microscale cultivation, B. subtilis; type: cell-based; settings: for Lag Phase: relative to control
Summary of the method: as §1

O=C(/C=C/c1ccccc1)c1ccc(O)c(O)c1O [Compound 10, 2′,3′,4′-Trihydroxychalcone]
activity at 0.3 µM ([1]; KT2440, read-out: Final Backscatter, complex medium, 0.3 µM, relative to control): 103% | activity at 3 µM ([1]; KT2440, read-out: Final Backscatter, complex medium, 3 µM, relative to control): 102% | activity at 30 µM ([1]; KT2440, read-out: Final Backscatter, complex medium, 30 µM, relative to control): 105% | activity at 0.3 µM ([1]; KT2440, read-out: Final Backscatter, minimal medium, 0.3 µM, relative to control): 101% | activity at 3 µM ([1]; KT2440, read-out: Final Backscatter, minimal medium, 3 µM, relative to control): 101% | activity at 30 µM ([1]; KT2440, read-out: Final Backscatter, minimal medium, 30 µM, relative to control): 103% | activity at 0.3 µM ([1]; KT2440, read-out: Growth rate, complex medium, 0.3 µM, relative to control): 114% | activity at 3 µM ([1]; KT2440, read-out: Growth rate, complex medium, 3 µM, relative to control): 103% | activity at 30 µM ([1]; KT2440, read-out: Growth rate, complex medium, 30 µM, relative to control): 105% | activity at 0.3 µM ([1]; KT2440, read-out: Growth rate, minimal medium, 0.3 µM, relative to control): 94.8% | activity at 3 µM ([1]; KT2440, read-out: Growth rate, minimal medium, 3 µM, relative to control): 96% | activity at 30 µM ([1]; KT2440, read-out: Growth rate, minimal medium, 30 µM, relative to control): 91.3% | Lag Phase ([1]; complex medium, 0.3 µM): 103,9% | Lag Phase ([1]; complex medium, 3 µM): 100,9% | Lag Phase ([1]; complex medium, 30 µM): 107,3% | Lag Phase ([1]; minimal medium, 0.3 µM): 100,0% | Lag Phase ([1]; minimal medium, 3 µM): 101,5% | Lag Phase ([1]; minimal medium, 30 µM): 99,2% | Selectivity C4/C3 (F. trinervia PEPC): 15 fold | Selectivity C4/C3 (F. trinervia PEPC; listed as 2′,3′,4′-Trihydroxychalcone): 15–45 fold | IC50 (F. trinervia PEPC; IC50 F. trinervia PEPC, C4 PEPC): 4.2 ± 1.5 µM | activity at 0.3 µM ([2]; MG1655, read-out: Final Backscatter, complex medium, 0.3 µM, relative to control): 106% | activity at 3 µM ([2]; MG1655, read-out: Final Backscatter, complex medium, 3 µM, relative to control): 106% | activity at 30 µM ([2]; MG1655, read-out: Final Backscatter, complex medium, 30 µM, relative to control): 98.9% | activity at 0.3 µM ([2]; MG1655, read-out: Final Backscatter, minimal medium, 0.3 µM, relative to control): 105% | activity at 3 µM ([2]; MG1655, read-out: Final Backscatter, minimal medium, 3 µM, relative to control): 105% | activity at 30 µM ([2]; MG1655, read-out: Final Backscatter, minimal medium, 30 µM, relative to control): 109% | activity at 0.3 µM ([2]; MG1655, read-out: Growth rate, complex medium, 0.3 µM, relative to control): 109% | activity at 3 µM ([2]; MG1655, read-out: Growth rate, complex medium, 3 µM, relative to control): 99.8% | activity at 30 µM ([2]; MG1655, read-out: Growth rate, complex medium, 30 µM, relative to control): 104% | activity at 0.3 µM ([2]; MG1655, read-out: Growth rate, minimal medium, 0.3 µM, relative to control): 96.3% | activity at 3 µM ([2]; MG1655, read-out: Growth rate, minimal medium, 3 µM, relative to control): 92% | activity at 30 µM ([2]; MG1655, read-out: Growth rate, minimal medium, 30 µM, relative to control): 99.2% | Lag Phase ([2]; complex medium, 0.3 µM): 92,1% | Lag Phase ([2]; complex medium, 3 µM): 94,8% | Lag Phase ([2]; complex medium, 30 µM): 118,4% | Lag Phase ([2]; minimal medium, 0.3 µM): 92,1% | Lag Phase ([2]; minimal medium, 3 µM): 90,6% | Lag Phase ([2]; minimal medium, 30 µM): 92,1% | activity at 0.3 µM (Bacillus subtilis 168; Bacillus subtilis, 168, read-out: Final Backscatter, complex medium, 0.3 µM, relative to control): 102% | activity at 3 µM (Bacillus subtilis 168; Bacillus subtilis, 168, read-out: Final Backscatter, complex medium, 3 µM, relative to control): 101% | activity at 30 µM (Bacillus subtilis 168; Bacillus subtilis, 168, read-out: Final Backscatter, complex medium, 30 µM, relative to control): 103% | activity at 0.3 µM (Bacillus subtilis 168; Bacillus subtilis, 168, read-out: Final Backscatter, minimal medium, 0.3 µM, relative to control): 108% | activity at 3 µM (Bacillus subtilis 168; Bacillus subtilis, 168, read-out: Final Backscatter, minimal medium, 3 µM, relative to control): 110% | activity at 30 µM (Bacillus subtilis 168; Bacillus subtilis, 168, read-out: Final Backscatter, minimal medium, 30 µM, relative to control): 106% | activity at 0.3 µM (Bacillus subtilis 168; Bacillus subtilis, 168, read-out: Growth rate, complex medium, 0.3 µM, relative to control): 106% | activity at 3 µM (Bacillus subtilis 168; Bacillus subtilis, 168, read-out: Growth rate, complex medium, 3 µM, relative to control): 109% | activity at 30 µM (Bacillus subtilis 168; Bacillus subtilis, 168, read-out: Growth rate, complex medium, 30 µM, relative to control): 112% | activity at 0.3 µM (Bacillus subtilis 168; Bacillus subtilis, 168, read-out: Growth rate, minimal medium, 0.3 µM, relative to control): 88.5% | activity at 3 µM (Bacillus subtilis 168; Bacillus subtilis, 168, read-out: Growth rate, minimal medium, 3 µM, relative to control): 94.4% | activity at 30 µM (Bacillus subtilis 168; Bacillus subtilis, 168, read-out: Growth rate, minimal medium, 30 µM, relative to control): 90.6% | Lag Phase (Bacillus subtilis 168; complex medium, 0.3 µM): 100,0% | Lag Phase (Bacillus subtilis 168; complex medium, 3 µM): 104,2% | Lag Phase (Bacillus subtilis 168; complex medium, 30 µM): 97,9% | Lag Phase (Bacillus subtilis 168; minimal medium, 0.3 µM): 98,3% | Lag Phase (Bacillus subtilis 168; minimal medium, 3 µM): 96,6% | Lag Phase (Bacillus subtilis 168; minimal medium, 30 µM): 99,3%
